The source of these data is ChEMBL document CHEMBL1177881, “Synthesis and GABAA receptor activity of A-homo analogues of neuroactive steroids” (Eur J Med Chem, 2010).

The IC50 is the point on the concentration scale where inhibition reaches its midpoint. Low values mean greater potency, high ones weaker potency.

For one experiment, the species on record is Rattus norvegicus. The experiment in a line: Displacement of [35S]TBPS from GABAA receptor in rat cerebellum at 10 uM to 1 nM after 60 mins. The format is tissue-based.
A short description of experiment [1]: Displacement of [35S]TBPS from GABAA receptor in rat cerebellum after 60 mins. The format is tissue-based.

In the experiment filed under Rattus norvegicus, `CC(=O)[C@H]1CC[C@H]2[C@@H]3CC[C@H]4CC[C@@H](O)CC[C@]4(C)[C@H]3CC[C@]12C` returned an Imax of 46.2%. Also, in experiment [1], the IC50 was found to be 1 µM.
The matching figures for `CC(=O)[C@H]1CC[C@H]2[C@@H]3CC=C4CC[C@H](O)CC[C@]4(C)[C@H]3CC[C@]12C`: 75.6% and 1.2 µM.
The matching figures for `CC(=O)[C@H]1CC[C@H]2[C@@H]3CC=C4C[C@H](O)CCC[C@]4(C)[C@H]3CC[C@]12C`: 50.7% and 0.8 µM.
In the same order, the values of `CC(=O)[C@H]1CC[C@H]2[C@@H]3CC=C4CC[C@@H](O)CC[C@]4(C)[C@H]3CC[C@]12C` are 50% and 0.1 µM.
Take `CC(=O)[C@H]1CC[C@H]2[C@@H]3CC[C@H]4C[C@H](O)CC[C@]4(C)[C@H]3CC[C@]12C` [BREXANOLONE]: the Imax in the experiment filed under Rattus norvegicus worked out at 79.6%. This compound also showed an IC50 in experiment [1] of 0.08 µM.
